Legend:
Assay type in all cases: cell-based
[1] = system: Phospho-Rb (Ser807/811) in OVCAR3 cells; assay: Phospho-Rb expression inhibition in OVCAR3 cells quantified by In Cell Western; details: Homo sapiens, OVCAR-3, 24 hours, read-out: OVCAR-3 pRb IC50
Experimental: Phospho-Rb Expression Inhibition in OVCAR3 Cells Quantified by in Cell Western
OVCAR3 cells were obtained from American Type Culture Collection (ATCC, HTB-161). OVCAR3 cells were plated in 96-well plates (VWR #10062-900, or Corning #3904) in 90 uL culture medium at a density of 20,000 cells/well in the RPM11640 growth medium containing 10% FBS and 1% Penicillin Streptomycin, and then incubated at 37° C. overnight. The following day, the test compound was administered to the cells by using 1000× compound stock solution prepared in DMSO at various concentrations. 1000× compound stock solution was first diluted in culturing medium to 10x, then 10 uL compound medium was added to each well in the cell plates. After administration of the compound, the cells were then incubated at 37° C. for 24 hours. Upon completion, the cells were washed with PBS briefly. 150 uL/well of 4% formaldehyde was added and the plates were incubated at room temperature for 20 mins. The cells were washed with PBS briefly, and permeabilized with 150 uL/well of ice cold 100% methanol for 10 mins. The cells were washed with PBS briefly and blocked with 100 uL/well LI-COR blocking buffer for 1 hr at room temperature with gentle shaking. The cells were incubated overnight at 4° C. with 50 uL primary antibody rabbit anti-Phospho-Rb (Ser807/811) (1:500, Cell Signaling, #8516) and anti-Rb (1:200, Santa Cruz, sc-73598) diluted in Intercept Blocking Buffer (LI-COR, #927-60001) containing 0.1% Tween 20. The next day, the cells were washed with 200 uL PBS containing 0.1% Tween 20, 5×5 mins at room temperature with gentle shaking, and incubated with 50 uL secondary antibody, IRDye® 800CW Goat anti-Rabbit IgG (1:1000, LI-COR, #926-32211) and IRDye® 680RD Goat anti-Mouse IgG (1:1000, LI-COR, #926-68070), in LI-COR blocking buffer with 0.2% Tween 20 for 1 hr at room temperature with gentle shaking. The cells were washed with 200 uL PBS containing 0.1% Tween 20, 5×5 mins at room temperature with gentle shaking. The cells were washed with PBS for 5 mins. 100 uL fresh PBS was added to each well and the plates were imaged on a LI-COR Odyssey CLX plate reader.

[2] = system: CCNE1-amplified OVCAR3 cells; assay: Cell growth inhibition of CCNE1-amplified OVCAR3 cells (CellTiter-Glo); details: Homo sapiens, OVCAR-3, 144 h, 6 days
Experimental: Cell Growth Inhibition of CCNE1-Amplified OVCAR3 Cells
(§1) OVCAR3 cells were seeded in 96-well plates at 2000 cells/well in 90 μl of RPM11640 growth medium containing 10% FBS and 1% Penicillin Streptomycin, and then incubated at 37° C. overnight. The following day, the test compound was administered to the cells by using 1000× compound stock solution prepared in DMSO at various concentrations. 1000× compound stock solution was first diluted in culturing medium to 10x, then 10 uL compound medium was added to each well in the cell plates. After administration of the compound, the cells were then incubated at 37° C. for 6 days. Upon completion, the plates were equilibrated at room temperature for approximately 10 minutes. 100 ul of CellTiter-Glo® Reagent (Promega) was added to each well. The plates were then incubated at room temperature for 10 minutes and luminescence was recorded by EnSpire plate reader (PerkinElmer).

[3] = system: CCNE1-normal SKOV3 cells; assay: Cell growth inhibition of CCNE1-normal SKOV3 cells (CellTiter-Glo); details: Homo sapiens, SK-OV-3, 144 h, 6 days
Experimental: Cell Growth Inhibition of CCNE1-Normal SKOV3 Cells
as §1, with “SKOV3 cells were obtained from American Type Culture Collection (ATCC, HTB-77). SKOV3” for “OVCAR3”, “1000” for “2000”

Structure (SMILES)	IC50 [1] [nM]	IC50 [2] [nM]	IC50 [3] [nM]
O=C1NCCCOC2(CC2)c2cc(ccn2)Nc2cc([nH]n2)[C@H]2CC[C@H](C2)O1 [Compound 26, (1'S,3′R,Z)-spiro[cyclopropane-1,5′-6,12-dioxa-3,10-diaza-4(4,2)-pyridina-2(3,5)-pyrazola-1(1,3)-cyclopentanacyclododecaphan]-11′-one]	10 to 50	10 to 50	250 to 1250
C[C@@H]1CCCNC(=O)O[C@@H]2CC[C@@H](C2)c2cc(n[nH]2)Nc2ccnc(c2)O1 [compound 11]	10 to 50	50 to 250	> 1250
[2H]C1([2H])CC(F)(F)[C@H](C)NC(=O)O[C@@H]2CC[C@@H](C2)c2cc([nH]n2)Nc2ccnc(c2)O1 [Compound 182, (1^1S,1^3R,9S,Z)-8,8-difluoro-9-methyl-2^1H-5,12-dioxa-3,10-diaza-4(4,2)-pyridina-2(3,5)-pyrazola-1(1,3)-cyclopentanacyclododecaphan-11-one-6,6-d2]	2 to 10	10 to 50	250 to 1250
C[C@@H]1Oc2cc(ccn2)Nc2cc(n[nH]2)[C@H]2CC[C@H](C2)OC(=O)N[C@H]2C[C@@H]1C2 [Compound 145, (1^1S,1^3R,7^1S,7^3R,6S,Z)-6-methyl-2^1H-5,10-dioxa-3,8-diaza-4(4,2)-pyridina-2(3,5)-pyrazola-1(1,3)-cyclopentana-7(1,3)-cyclobutanacyclodecaphan-9-one]	50 to 250	50 to 250	> 1250
O=C1NC23CC(CCOc4cc(cc(C(F)F)n4)Nc4cc([nH]n4)[C@H]4CC[C@H](C4)O1)(C2)C3 [compound 23]	≤ 2	2 to 10	50 to 250
C[C@H]1NC(=O)O[C@@H]2CC[C@@H](C2)c2cc([nH]n2)Nc2ccnc(c2)OCCC1(F)F [Compound 220, (1^1S,1^3R,9R,Z)-8,8-difluoro-9-methyl-2^1H-5,12-dioxa-3,10-diaza-4(4,2)-pyridina-2(3,5)-pyrazola-1(1,3)-cyclopentanacyclododecaphan-11-one]	2 to 10	10 to 50	250 to 1250
C[C@@H]1NC(=O)O[C@@H]2CC[C@@H](C2)c2n[nH]c(c2F)Nc2ccnc(c2)OCCC1(F)F [Compound 188, (1^1S,1^3R,9S,E)-2^4,8,8-trifluoro-9-methyl-2^1H-5,12-dioxa-3,10-diaza-4(4,2)-pyridina-2(3,5)-pyrazola-1(1,3)-cyclopentanacyclododecaphan-11-one]	10 to 50	50 to 250	> 1250
O=C1NC23CC(CCc4cc(cc(C(F)F)n4)Nc4cc([nH]n4)[C@H]4CC[C@H](C4)O1)(C2)C3 [compound 20]	10 to 50	10 to 50	> 1250
CC1CCCOc2cc(ccn2)Nc2cc([nH]n2)[C@H]2CC[C@H](C2)OC(=O)N1 (mixture of isomers) [Compound 8, (1^1S,1^3R,Z)-9-methyl-2^1H-5,12-dioxa-3,10-diaza-4(4,2)-pyridina-2(3,5)-pyrazola-1(1,3)-cyclopentanacyclododecaphan-11-one]	2 to 10	10 to 50	> 1250
O=C1NC23CC(CCOc4cc(ccn4)Nc4cc([nH]n4)[C@H]4CC[C@H](C4)O1)(C2)C3 [Compound 22, (1^1S,1^3R,Z)-2^1H-5,11-dioxa-3,9-diaza-4(4,2)-pyridina-2(3,5)-pyrazola-8(1,3)-bicyclo[1.1.1]pentana-1(1,3)-cyclopentanacycloundecaphan-10-one]	≤ 2	≤ 2	10 to 50
C[C@H]1NC(=O)O[C@@H]2CC[C@@H](C2)c2n[nH]c(c2F)Nc2ccnc(c2)OCCC1(F)F [Compound 228, (1^1S,1^3R,9R,E)-2^4,8,8-trifluoro-9-methyl-2^1H-5,12-dioxa-3,10-diaza-4(4,2)-pyridina-2(3,5)-pyrazola-1(1,3)-cyclopentanacyclododecaphan-11-one]	50 to 250	50 to 250	> 1250
C[C@H]1C/C=C\C(F)(F)c2cc(ccn2)Nc2cc(n[nH]2)[C@H]2CC[C@H](C2)OC(=O)N1 [Compound 167, (1^1S,1^3R,2^4Z,9S)-5,5-difluoro-9-methyl-2^1H-12-oxa-3,10-diaza-4(4,2)-pyridina-2(3,5)-pyrazola-1(1,3)-cyclopentanacyclododecaphan-6-en-11-one]	2 to 10	10 to 50	250 to 1250
O=C1NCCCCOc2cc(ccn2)Nc2cc([nH]n2)[C@H]2CC[C@H](C2)O1 [Compound 1, (1^1S,1^3R,Z)-2^1H-5,12-dioxa-3,10-diaza-4(4,2)-pyridina-2(3,5)-pyrazola-1(1,3)-cyclopentanacyclododecaphan-11-one]	10 to 50	10 to 50	> 1250
O=C1NC2(CCCOc3cc(ccn3)Nc3cc([nH]n3)[C@H]3CC[C@H](C3)O1)CC2 [Compound 33, (1'S,3′R,Z)-spiro[cyclopropane-1 9′-5,12-dioxa-3,10-diaza-4(4,2)-pyridina-2(3,5)-pyrazola-1(1,3)-cyclopentanacyclododecaphan]-11′-one]	10 to 50	50 to 250	> 1250
C[C@H]1Oc2cncc(c2)Nc2cc(n[nH]2)[C@H]2CC[C@H](C2)OC(=O)N[C@H]2C[C@@H]1C2 [Compound 147, (1^1S,1^3R,7^1S,7^3S,6R,Z)-6-methyl-2^1H-5,10-dioxa-3,8-diaza-4(3,5)-pyridina-2(3,5)-pyrazola-1(1,3)-cyclopentana-7(1,3)-cyclobutanacyclodecaphan-9-one]	50 to 250	50 to 250	> 1250
O=C1NCCCCCOc2cc(ccn2)Nc2cc([nH]n2)[C@H]2CC[C@H](C2)O1 [Compound 3, (1^1S,1^3R,Z)-2^1H-5,13-dioxa-3,11-diaza-4(4,2)-pyridina-2(3,5)-pyrazola-1(1,3)-cyclopentanacyclotridecaphan-12-one]	10 to 50	50 to 250	> 1250
C[C@@H]1NC(=O)O[C@@H]2CC[C@@H](C2)c2cc([nH]n2)Nc2cnnc(c2)OCCC1(F)F [Compound 218, (1^1S,1^3R,9S,Z)-8,8-difluoro-9-methyl-2^1H-5,12-dioxa-3,10-diaza-4(5,3)-pyridazina-2(3,5)-pyrazola-1(1,3)-cyclopentanacyclododecaphan-11-one]	10 to 50	> 250	> 1250
[2H]C1([2H])CC[C@H](C)NC(=O)O[C@@H]2CC[C@@H](C2)c2cc([nH]n2)Nc2cc(F)nc(c2)O1 [Compound 179, (1^1S,1^3R,9S,Z)-4^6-fluoro-9-methyl-2^1H-5,12-dioxa-3,10-diaza-4(4,2)-pyridina-2(3,5)-pyrazola-1(1,3)-cyclopentanacyclododecaphan-11-one-6,6-d2]	10 to 50	50 to 250	> 1250
O=C1NC2CC(CCc3cncc(c3)Nc3cc(n[nH]3)[C@H]3CC[C@H](C3)O1)C2 [Compound 141, (1^1S,1^3R,7^1R,7^3R,Z)-2^1H-10-oxa-3,8-diaza-4(3,5)-pyridina-2(3,5)-pyrazola-1(1,3)-cyclopentana-7(1,3)-cyclobutanacyclodecaphan-9-one]	≤ 2	2 to 10	50 to 250

From patent US20240317777A1, “NOVEL MACROCYCLIC AMINOPYRAZOLE COMPOUNDS AS CDK2 INHIBITORS” (Accutar Biotechnology Inc., priority 2023, published 2024)
